Measured values from paper PMC5547389, “Structure-activity relationships and molecular docking studies of chromene and chromene based azo chromophores: A novel series of potent antimicrobial and anticancer agents” (EXCLI Journal, 2017).
In brackets after ≈: the same amount, converted by molar mass.

Legend:
[1] = system: Candida albicans (RCMB 05036); assay: Well diffusion assay (inhibition zone); type: cell-based; conditions: RCMB05036, 5 mg/mL in DMSO, fungi, read-out: Inhibition Zone (IZ) diameter, C.A
Outline: (§1)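 Agar well diffusion with 10 mm wells, nutrient agar for bacteria and malt extract agar for fungi. Plates were incubated 24-48 h at 37 °C for bacteria or 28 °C for fungi. Inhibition zone diameters were measured in mm, in triplicate.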

[2] = system: Candida albicans (RCMB 05036); assay: MIC by serial dilution method; type: cell-based; conditions: RCMB05036, fungi, read-out: Minimum inhibitory concentration, MIC, C.A
Outline: (§2)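 Compounds first screened by agar diffusion well method for inhibition zones; MICs then determined by serial dilution. Ampicillin, ciprofloxacin, gentamicin and amphotericin B served as positive controls.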

[3] = target: T1, DNA gyrase from Escherichia coli (Escherichia coli, UniProt P0AES4+P0AES6); assay: In vitro inhibitory activity screening of E. coli DNA gyrase; type: biochemical; conditions: for remaining activity at 10 µM: 10 μM of compound, read-out: DNA Gyrase Residual activity RA (10 μM); for remaining activity at 100 µM: read-out: DNA Gyrase Residual activity RA (100 μM)
T1 construct: purchased Inspiral is Ltd (Norwich, United Kingdom)
Procedure: Gyrase B and ParE monomers have only modest ATPase activity which is enhanced in the case of the holo enzymes and stimulated further by DNA. The phosphate released following conversion of ATP into ADP can be detected by the addition of malachite green solution and measured by monitoring the increase in absorbance at 600 nm. Topoisomerases were purchased from Inspiral is Ltd (Norwich, United Kingdom). For the Escherichia coli DNA gyrase ATPase assay, the final assay composition was 10 nM DNA gyrase (a complex of two GyrA and two GyrB subunits, the A2B2 complex) 3 mM Tris, pH 7.5, 24 mM KCl, 2 mM MgCl2, 6.5 % (w/v) glycerol, 0.01 mg/ml bovine serum albumin (BSA), 2 mM DTT (dithiothreitol), 9 mM ATP, and 5 % DMSO solution containing the compounds). For E. coli topoisomerase IV ATPase assay, the final assay composition was 10 nM topoisomerase IV (a complex consisting of two ParC and two ParE subunits), 40 mM HEPES-KOH, pH 7.6, 100 mM Potassium Glutamate, 25 mM Magnesium Acetate, […] single-stranded DNA, 0.2 mg/ml BSA, 10 mM DTT, 0.5 mM ATP, and 5 % DMSO solution containing the compounds. The reactions were started by the addition of the ATP, and the reaction mixtures were allowed to incubate at 30 °C for 60 mins. Reactions were stopped by adding Malachite green solution (0.034 % malachite green, 10 mM ammonium molybdate, 1M HCl, 3.4 % Ethanol, 0.01 % Tween 20). Color was allowed to develop for 5 min, and the absorbance at 600 nm was measured spectrophotometrically. The half-maximum (50 %) inhibitory concentration (IC50) values were determined from the absorbance readings using no-compound and no-enzyme controls. The values reported are the averages of at least four independent experiments.
Based upon the antimicrobial screening data, target compounds 4a, 7c, and 13b were evaluated against DNA gyrase from Escherichia coli in the DNA supercoiling assay for studying their mechanism. The results are presented in Table 5(Tab. 5) as residual activities (RA is the percentage activity of the enzyme in the presence of 10 μM and 100 μM of compound).

[4] = system: Pseudomonas aeruginosa (RCMB 010043); assay: Well diffusion assay (inhibition zone); type: cell-based; conditions: RCMB010043, 5 mg/mL in DMSO, Gm-ve, read-out: Inhibition Zone (IZ) diameter, P.A
Outline: as §1

[5] = system: Pseudomonas aeruginosa (RCMB 010043); assay: MIC by serial dilution method; type: cell-based; conditions: RCMB010043, Gm-ve, read-out: Minimum inhibitory concentration, MIC, P.A
Outline: as §2

caspase-3 and -7 = assay: Caspase-Glo 3/7 caspase activity assay; type: cell-based, human; conditions: compared to control and doxorubicin; MCF-7 and HCT-116; compounds at IC50 concentration, 48 h
Procedure: To measure caspase-3 and -7 activities, a luminescent Caspase-Glo 3/7 assay was performed. HCT116 and MCF-7 cells were seeded onto black 96-well plates at a density of 3,500 cells/well. […] After 48 h a Caspase-Glo 3/7 Assay (Promega) was performed according to the manufacturer's instructions. After adding 100 μL of Caspase 3/7 Glo Reagent, cells were incubated for 2.5 h at room temperature. The luminescence was measured using a multi-plate reader (Synergy 4, BioTek) with an integration time of 1 second per well. The values are the means ± SD of three sets of experiments.
The initial reported assay of 4-aryl-4H-chromene series were identified as apoptosis inducers via caspase activation (Elinson et al., 2010[20]; Sondhi et al., 2010[58]; Thareja et al., 2010[60]; Trinchieri, 2015[61]). Furthermore, it was important to investigate the antiproliferative effect of the novel synthesized compounds 4a, 4b, and 4c using caspase-3 and -7 activities compared to doxorubicin and vehicle control drug in the corresponding cancer cell lines MCF-7 and HCT-116.

T1 sequence (P0AES4 whole entry, one chain of several): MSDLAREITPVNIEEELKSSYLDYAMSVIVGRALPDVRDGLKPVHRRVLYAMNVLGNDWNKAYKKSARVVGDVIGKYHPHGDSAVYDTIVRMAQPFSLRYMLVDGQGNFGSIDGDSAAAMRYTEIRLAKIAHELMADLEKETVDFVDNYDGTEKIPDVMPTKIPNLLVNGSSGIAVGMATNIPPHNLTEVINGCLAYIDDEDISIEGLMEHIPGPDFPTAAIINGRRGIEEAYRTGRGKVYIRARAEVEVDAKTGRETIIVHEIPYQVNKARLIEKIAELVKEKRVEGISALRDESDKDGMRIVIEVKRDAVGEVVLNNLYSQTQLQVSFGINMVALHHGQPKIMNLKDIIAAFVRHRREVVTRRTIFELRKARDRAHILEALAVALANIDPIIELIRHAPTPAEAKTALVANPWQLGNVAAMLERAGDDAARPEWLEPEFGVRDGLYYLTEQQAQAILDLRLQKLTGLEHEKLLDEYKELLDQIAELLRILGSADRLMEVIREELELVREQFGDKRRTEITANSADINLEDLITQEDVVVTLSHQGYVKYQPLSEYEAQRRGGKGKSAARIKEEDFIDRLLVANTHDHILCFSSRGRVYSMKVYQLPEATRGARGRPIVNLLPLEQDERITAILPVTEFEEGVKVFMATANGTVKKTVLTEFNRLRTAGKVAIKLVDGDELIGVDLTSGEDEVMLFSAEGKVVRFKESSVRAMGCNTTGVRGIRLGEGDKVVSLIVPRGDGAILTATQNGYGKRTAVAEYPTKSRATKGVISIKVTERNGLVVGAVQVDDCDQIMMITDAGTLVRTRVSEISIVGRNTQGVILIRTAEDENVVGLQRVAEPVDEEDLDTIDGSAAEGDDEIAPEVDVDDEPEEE

Row | Compound | remaining activity at 10 µM [3] [%] | remaining activity at 100 µM [3] [%] | elevation in the caspase activity (caspase-3 and -7) | other results
1 | N#CC1=C(N)Oc2c(N)cc3ccccc3c2C1c1ccc(F)cc1 (stereo not drawn) [4a, 3,5-diamino-1-(4-fluorophenyl)-1H-benzo[f]chromene-2-carbonitrile] | 117 | 114 | – | zone of inhibition at 5000 µg/mL [1]: 9.4 mm; MIC [2]: 125 µg/mL (≈ 377 µM)
2 | COc1ccc(N=Nc2cc3c(cc2O)OC(N)=C(C#N)C3c2ccc(F)cc2)cc1 (stereo not drawn) [13b, 2-Amino-4-(4-fluoro-phenyl)-7-hydroxy-6-(4-methoxy-phenylazo)-4H-chromene-3-carbonitrile] | 137 | 127 | – | –
3 | N#CC1=C(N)Oc2c(N)cc3ccccc3c2C1c1ccc(Cl)cc1 (stereo not drawn) [4b, 3,5-diamino-1-(4-chlorophenyl)-1H-benzo[f]chromene-2-carbonitrile] | – | – | 2-3 folds | zone of inhibition at 5000 µg/mL [4]: 13.1 mm; MIC [5]: 125 µg/mL (≈ 359 µM)
4 | Cc1ccc(C2C(C#N)=C(N)Oc3c(N)cc4ccccc4c32)cc1 (stereo not drawn) [4c, 3,5-diamino-1-(p-tolyl)-1H-benzo[f]chromene-2-carbonitrile] | – | – | 2-3 folds | –
5 | N#CC1=C(N)Oc2c(ccc3c(N)cccc23)C1c1ccc(F)cc1 (stereo not drawn) [7c] | 125 | 128 | – | –
